Results reported in patent US20230107598A1, “SORGHUM DOUBLED HAPLOID […]” (PIONEER HI-BRED INTERNATIONAL, INC., priority 2020, published 2023).

Tested on: haploid sorghum plants
Assay: Chromosome doubling of haploid sorghum plants by root treatment with colchicine
Assay type: in vivo
Conditions: colchicine 0.05%, 5 hours, roots
Source text: Plants from diploid sorghum genotypes, “PHI01”, “PHI02”, “PHI03”, “PHI04”, “PHI05”, “PHI06”, “PHI07”, “PHI08”, “PHI09”, “PHI10”, “PHI11”, “PHI12”, “PHI13”, “PHI14”, “PHI15”, “PHI16”, “PHI17”, “PHI18”, “PHI19”, and “PHI20” were pollinated with pollen obtained from pearl millet line PHI01A, as described in Example 2. Immature haploid embryos were isolated, as described in Example 2, 10-20 days after pollination and embryo sizes ranged from 0.1-3 mm long. These haploid embryos were germinated on a medium (see Table 4) in the dark. The germinated haploid embryos were then transferred to fresh media for an additional 7-10 days at 21°−26° C. in the dark until germinated plantlets formed. The germinated plantlets were then transferred to a light culture room and grown at 21°−26° C. for another 2-3 weeks until healthy plantlets having good roots developed. These plantlets were then potted into soil and grown in a regular greenhouse for 5-6 weeks. Upon healthy plant establishment, the roots were treated with a chromosome doubling agent, colchicine, for 5 hours in the dark. Additional chromosome doubling agents for example, pronamide, dithipyr, oryzalin, AMP, and trifluralin, or any of the other chromosome doubling agents referenced in Table 1 can also be used. After treatment with the doubling agent, the roots were then thoroughly rinsed with running water for 30 min, to remove the residual doubling agent and then potted in soil and grown to maturity.

[1] = PHI01/2018, 15 haploid plants treated
[2] = PHI02/2018, 63 haploid plants treated
[3] = PHI02/2019, 17 haploid plants treated
[4] = PHI02/2020, 13 haploid plants treated
[5] = PHI03/2018, 20 haploid plants treated
[6] = PHI04/2018, 9 haploid plants treated
[7] = PHI05/2018, 3 haploid plants treated
[8] = PHI05/2019, 4 haploid plants treated
[9] = PHI05/2020, 1 haploid plant treated
[10] = PHI06/2018, 24 haploid plants treated
[11] = PHI07/2018, 24 haploid plants treated
[12] = PHI08/2018, 2 haploid plants treated
[13] = PHI09/2018, 8 haploid plants treated
[14] = PHI09/2019, 14 haploid plants treated
[15] = PHI09/2020, 10 haploid plants treated
[16] = PHI10/2018, 38 haploid plants treated
[17] = PHI10/2019, 36 haploid plants treated
[18] = PHI10/2020, 25 haploid plants treated
[19] = PHI11/2019, 2 haploid plants treated
[20] = PHI11/2020, 2 haploid plants treated
[21] = PHI12/2019, 8 haploid plants treated
[22] = PHI12/2020, 1 haploid plant treated
[23] = PHI13/2019, 30 haploid plants treated
[24] = PHI13/2020, 18 haploid plants treated
[25] = PHI14/2019, 53 haploid plants treated
[26] = PHI14/2020, 14 haploid plants treated
[27] = PHI15/2019, 15 haploid plants treated
[28] = PHI15/2020, 5 haploid plants treated
[29] = PHI16/2019, 27 haploid plants treated
[30] = PHI17/2020, 4 haploid plants treated
[31] = PHI18/2020, 6 haploid plants treated
[32] = PHI19/2020, 23 haploid plants treated
[33] = PHI20/2020, 9 haploid plants treated
[34] = Sum of all genotypes/years, 543 haploid plants treated

COc1cc2c(c(OC)c1OC)-c1ccc(OC)c(=O)cc1[C@@H](NC(C)=O)CC2 [Colchicine, (S)-N-(5,6,7,9-tetrahydro-1,2,3,10-tetramethoxy-9-oxobenzo (a)heptalen-7-yl) acetamide]
99%: DH Success rate (%) [34]
25: Number of Fully Fertile DH plants [18] | Number of plants survived after treatment [18]
52: Number of Fully Fertile DH plants [25] | Number of plants survived after treatment [25]
100%: DH Success rate (%) [1] | DH Success rate (%) [3] | DH Success rate (%) [4] | DH Success rate (%) [5] | DH Success rate (%) [6] | DH Success rate (%) [7] | DH Success rate (%) [8] | DH Success rate (%) [9] | DH Success rate (%) [10] | DH Success rate (%) [12] | DH Success rate (%) [13] | DH Success rate (%) [15] | DH Success rate (%) [16] | DH Success rate (%) [18] | DH Success rate (%) [19] | DH Success rate (%) [20] | DH Success rate (%) [21] | DH Success rate (%) [22] | DH Success rate (%) [23] | DH Success rate (%) [24] | DH Success rate (%) [27] | DH Success rate (%) [28] | DH Success rate (%) [29] | DH Success rate (%) [30] | DH Success rate (%) [31] | DH Success rate (%) [32] | DH Success rate (%) [33]
62: Number of Fully Fertile DH plants [2] | Number of plants survived after treatment [2]
15: Number of Fully Fertile DH plants [1] | Number of plants survived after treatment [1] | Number of Fully Fertile DH plants [27] | Number of plants survived after treatment [27]
24: Number of Fully Fertile DH plants [10] | Number of plants survived after treatment [10]
9: Number of Fully Fertile DH plants [6] | Number of plants survived after treatment [6] | Number of Fully Fertile DH plants [33] | Number of plants survived after treatment [33]
4: Number of Fully Fertile DH plants [8] | Number of plants survived after treatment [8] | Number of Fully Fertile DH plants [30] | Number of plants survived after treatment [30]
14: Number of plants survived after treatment [14]
97%: DH Success rate (%) [17]
1: Number of Fully Fertile DH plants [9] | Number of plants survived after treatment [9] | Number of Fully Fertile DH plants [22] | Number of plants survived after treatment [22]
27: Number of Fully Fertile DH plants [29] | Number of plants survived after treatment [29]
18: Number of Fully Fertile DH plants [24] | Number of plants survived after treatment [24]
98%: DH Success rate (%) [2] | DH Success rate (%) [25]
17: Number of Fully Fertile DH plants [3] | Number of plants survived after treatment [3]
8: Number of Fully Fertile DH plants [13] | Number of plants survived after treatment [13] | Number of Fully Fertile DH plants [21] | Number of plants survived after treatment [21]
538: Number of plants survived after treatment [34]
13: Number of Fully Fertile DH plants [4] | Number of plants survived after treatment [4] | Number of Fully Fertile DH plants [14] | Number of Fully Fertile DH plants [26] | Number of plants survived after treatment [26]
6: Number of Fully Fertile DH plants [31] | Number of plants survived after treatment [31]
23: Number of Fully Fertile DH plants [11] | Number of plants survived after treatment [11] | Number of Fully Fertile DH plants [32] | Number of plants survived after treatment [32]
20: Number of Fully Fertile DH plants [5] | Number of plants survived after treatment [5]
38: Number of Fully Fertile DH plants [16] | Number of plants survived after treatment [16]
3: Number of Fully Fertile DH plants [7] | Number of plants survived after treatment [7]
2: Number of Fully Fertile DH plants [12] | Number of plants survived after treatment [12] | Number of Fully Fertile DH plants [19] | Number of plants survived after treatment [19] | Number of Fully Fertile DH plants [20] | Number of plants survived after treatment [20]
96%: DH Success rate (%) [11]
5: Number of Fully Fertile DH plants [28] | Number of plants survived after treatment [28]
537: Number of Fully Fertile DH plants [34]
30: Number of Fully Fertile DH plants [23] | Number of plants survived after treatment [23]
35: Number of Fully Fertile DH plants [17] | Number of plants survived after treatment [17]
93%: DH Success rate (%) [14] | DH Success rate (%) [26]
10: Number of Fully Fertile DH plants [15] | Number of plants survived after treatment [15]
